Test results reported in patent publication EP0306300B1, “Pyrrolo(1,2-a)imidazole and imidazo(1,2-a)pyridine derivatives and their use as 5-lipoxygenase pathway inhibitors” (SMITHKLINE BEECHAM CORPORATION, priority 1987, dated 1989).
Read-outs that look alike come from different tables or passages of the source.

Experiments:
[1] = test system: arachidonic acid-induced edema in mice; experiment: Arachidonic acid-induced mouse ear inflammation (ear swelling); format: in vivo, male Balb/c mice; conditions: 1 h, 50 mg/kg s.c. or i.p., ear thickness one hour after 2 mg arachidonic acid
cynomolgus monkeys = experiment: CNS activity / oral toxicity in cynomolgus monkeys; conditions: cynomolgus monkey, in vivo
Protocol: Additional monkeys tolerated repeated doses of 45 mg/kg or 30 mg/kg and one animal tolerated an escalating dose schedule of 30-90-120 mg/kg.
The two monkeys administered 400 mg/kg were repeatedly administered this dose for 7 consecutive days; each animal experienced emesis within 1 to 5 hours of dosing after the 1st, 3rd and 4th doses, whereas only the female experienced emesis after the 5th, 6th and 7th doses. A complete necropsy, serum clinical chemistry, hematology and histological examination was completed on both monkeys.

[2] = test system: Eicosanoid Production in Human Whole Blood; experiment: Inhibition of eicosanoid production following calcium ionophore stimulation in human whole blood; format: cell-based; conditions: human blood stimulated with calcium ionophore
Protocol: The eicosanoids, which include the 5-lipoxygenase products LTB , transLTB₄, 20-hydroxyLTB₄, 5-HETE, and the 12-lipoxygenase product are extracted from the whole blood following A23187 calcium ionophore stimulation. The extracts are separated by reverse phase high pressure liquid chromatography and quantified by absorbance methods.
Venous human blood is collected into polypropylene tubes containing 1% heparin. The blood is then aliquoted into 4.5 ml volumes and preincubated at 37°C for 10 minutes in polypropylene tubes (15 ml size). Compound or carrier (50 »L dimethylsulfoxide) is added 5 minutes prior to stimulation. Calcium ionophore (0.5ml) is added, and the blood incubated for 10 minutes. Prostaglancin B₂(1 nmole) is added, and the blood extracted as described below.
The samples are centrifuged at 1000xg for 15 minutes at 5°C. The plasma is collected, and one volume of methanol is added to the plasma. This suspension is then centrifuged at 1000xg for ten minutes at 5°C. The supernatant is collected and diluted with 1.5 volumes of chilled aqueous 1% formic acid: 1% triethylamine. This mixture is loaded onto a preconditioned J.T. Baker C18 SPE cartridge (Phillipsburg, NJ) at a flow rate of 1-2 ml/minute. (The cartridge is preconditioned according to manufacture's recommendations.) The absorbed sample is washed in the following order with three (3) ml each of (i) aqueous 1% formic acid: 1% triethylamine; (ii) petroleium ether; and (iii) 20% acetonitrile: 1% triethylamine.
The eicosanoids are eluted in 3ml of 70% acetonitrile: 1% triethylamine. The solvent is removed under vacuum. The sample is resuspended in 200»L of 50% methanol buffered with ammonium acetate.
The sample (175 »l) is loaded into a WATERS (Milbord, MA) RCM NOVA PAK C18 (100x8mm) column with the starting mobile phase of 90% A (A = 10% acetonitrile buffered with 30mM ammonium acetate to pH6.8) and 10% B (B = 90% acetonitrile buffered with 30mM ammonium acetate to pH6.8). The flow rate for the separation is 2.5ml/minute. At one minute the %B is increased to 27% in a step fashion. By 12 minutes the %B has increased in a concave hyperbolic function (curve 9) to 40% and increases in a linear manner to 60% by 22 minutes. Under these developing conditions, the retention times for the eicosanoids are: 20-hydroxyLTB₄, 4.6 minutes; transLTB₄, 10 minutes; LTB₄, 10.5 minutes; 12-HETE, 10.4 minutes; 5-HETE, 21 minutes. The HPLC system consisted of WATERS 510 pumps, 840 controller, WISP injector and 990 detector.
The eicosanoids in the samples are verified by their retention times and their UV absorbance spectra. The peaks are quantified with reference to the internal standard and their absorbance response at their maximum absorbance wavelength.

[3] = In vivo metabolism (statement only)
[4] = 5-HETE, read-out: 5-LO, IC50 (uM) 5-HETE
[5] = 12-HETE, read-out: 5-LO, IC50 (uM) 12-HETE
[6] = LTB4, read-out: 5-LO, IC50 (uM) LTB4
[7] = tLTB4, read-out: 5-LO, IC50 (uM) tLTB4

| SMILES | inhibition at 50 mg/kg [1] [%] | Adverse CNS activity (cynomolgus monkeys) | CNS toxicity / adverse CNS effects (comparative statement) (cynomolgus monkeys) | IC50 [2, 4] [µM] | IC50 [2, 5] [µM] | IC50 ([2]; 20-OH-LTR4, read-out: 5-LO, IC50 (uM) 20-OH-LTR4) [µM] | IC50 [2, 6] [µM] | IC50 [2, 7] [µM] | metabolism in vivo [3] |
| --- | --- | --- | --- | --- | --- | --- | --- | --- | --- |
| CSc1ccc(-c2nc3n(c2-c2ccncc2)CCC3)cc1 [Compound 1, 2-(4-Methylthiophenyl)-3-(4-pyridyl)-6,7-dihydro-[5H]-pyrrolo[1,2-a]imidazole] | 62 | + | less CNS toxicity than prior art compound A | 30 | 60 | 30 | 30 | 30 |  |
| C[S+]([O-])c1ccc(-c2nc3n(c2-c2ccncc2)CCC3)cc1 (stereo not shown) [Compound 2, 2-(4-Methylsulfinylphenyl)-3-(4-pyridyl)-6,7-dihydro-[5H]-pyrrolo[1,2-a]imidazole] |  |  |  | 80 | 80 |  | 80 | 80 | metabolized in vivo to compound D |
